Experiments:
cIAP1-BIR3 Protein = cIAP1-BIR3 Protein (Homo sapiens (Human), UniProt Q13490); test: Fluorescence polarization affinity of compounds to cIAP1-BIR3; assay type: binding; conditions: cIAP1-BIR3 20 nM; 5 nM ARPFAQ-K(5-FAM)-NH2 probe; FP; pH 7.5; read-out: affinity to target protein in vitro, cIAP1-BIR3 Protein (IC50)
Experimental: (§1) Biological Assay 1: affinity of compounds to cIAP1-BIR3, cIAP2-BIR3, XIAP-BIR3 • 1) Affinity of compounds listed in table to cIAP1-BIR3, Ciap2-BIR3, XIAP-BIR3 was tested referring to Nikolovska-Colesks, Z. et.Al. (Analytical Biochemistry,2004,232:261-273) to obtain IC50 value. Generally speaking, in 10-dose IC50 mode, IAP antagonists with different concentrations were diluted in series by 3-fold and fluorescence labelled ARPFAQ-K (5-FAM)-NH2 peptide was used as probe to test compounds binding to protein BIR3 domain. • 2) Test condition: cIAP1-BIR3: 20 nM; cIAP2-BIR3: 60 nM; XIAP-BIR3: 30 nM; 5 nM probe in 100 mM tripotassium phosphate, pH 7.5, 0.1 mg/mL BSA, 0.005% Triton X100 and 0.5% DMSO. • 3) Test procedure: compounds were added into protein with different concentrations by using ECHO (LabCyte), and then the mixture was preincubated for 15 min. The probe was added and the final concentration was 5 nM. After incubating for 60 min, FP was tested and mP was calculated. Experiment results were list in table 1.

cIAP2-BIR3 Protein = cIAP2-BIR3 Protein (Homo sapiens (Human), UniProt Q13489); test: Fluorescence polarization affinity of compounds to cIAP2-BIR3; assay type: binding; conditions: cIAP2-BIR3 60 nM; 5 nM ARPFAQ-K(5-FAM)-NH2 probe; FP; pH 7.5; read-out: affinity to target protein in vitro, cIAP2-BIR3 Protein (IC50)
Experimental: as §1

XIAP-BIR3 Protein = XIAP-BIR3 Protein (Homo sapiens (Human), UniProt P98170); test: Fluorescence polarization affinity of compounds to XIAP-BIR3; assay type: binding; conditions: XIAP-BIR3 30 nM; 5 nM ARPFAQ-K(5-FAM)-NH2 probe; FP; pH 7.5; read-out: affinity to target protein in vitro, XIAP-BIR3 Protein (IC50)
Experimental: as §1

[1] = tested on: NF-κB Luciferase Reporter Hela cells; test: TNF-α inducing NF-κB reporter; assay type: cell-based
Experimental: Biological Assay 2: TNF-α inducing NF-κB reporter
• 1) tested compounds were added into DMSO to give parent liquor (10 mM); • 2) reference compound Birinapant (32 μL, 10 mM) was added into DMSO (128 μL) to give a solution (2 mM); • 3) 0.5 μL reference compound Birinapant (2 mM) and tested compounds (10 mM) were taken by Echo and added into Greiner 96 well black cell culture plate respectively. The initial concentration of the reference compound and tested compound was 10 μM and 50 μM, respectively. Then, the reference compound and tested compounds were diluted at 9 points in series by 5-fold; and every plate was repeated for 3 times. • 4) the reference compound WXFL2012A001 (Birinapant) (final concentration: 10 μM) as HPE and DMSO (final concentration: 0.5%) as ZPE.
• 5) purpose of the three repeated plates: the first plate was used for testing compounds' activity;
the second plate was used for testing cytotoxicity of the compounds; the third plate was used for solution replacement of the first and second plates: mixing inducer TNF-α and medium containing 0.1% FBS, and then being added to the third plate and the resultant mixture was transferred to the first plate where supernatants had been removed.
• 1) removing medium in NF-iBLuciferase Reporter Hela cell culture flask and washing cell once with PBS (10 mL) • 2) adding 0.25% pancreatin (3 mL) to T150 cell culture flask, and placinginto cell incubator (37° C., 5%CO2) and dissociating cell for 3 min, and then medium (10 mL) was added to end dissociation and blowing cells with electric pipette until cells were dispersed into single cell. • 3) Calculating cell density with cell counter Countstar • 4) Adjusting NF-κB Luciferase Reporter Hela density with medium to 2.0×10^5 cells/mL • 5) Adding cells to two Greiner 96 well black cell culture plates containing compounds, (100 μL per well (2.0×10^4 cells/well)), one plate was used for testing compounds' activity, another was used for testing cytotoxicity of the compounds. • 6) Placing cell culture plates into cell incubator (37° C., 5%CO2) and incubatingfor 24 h Second Day TNF-α Inducing • 1) TNF-α (100 μg/mL) was diluted into 20 ng/mL with 0.1% FBS medium and transferredto the third plate with 100 μL per well • 2) Removing medium of the first 96 well black cell culture plate (compound activity testing plate) after 24 h, replacing with fresh medium containing the compound and 20 ng/mL TNF-α in the third plate • 3) Placing cell culture plate into cell incubator (37° C., 5% CO2) and incubatingfor 6 h • 4) after 6 h, compound's activity in the first plate was tested according to Bright-Glo (Promega) manual method, luciferase signal in each well was tested by Envision plate reader • 5) compound's cytotoxicity in the second plate was tested according to ATPlite 1Step (Perkin Elmer) manual method, luciferase signal in each well was tested by Envision plate reader • 6) analyzing with software to obtain EC50 of compound.

[2] = Homo sapiens, 6 h, Table 3, 20 ng/mL TNF-α, Bright-Glo luciferase, values given as ranges

Sequence of XIAP-BIR3 Protein (P98170 241-356): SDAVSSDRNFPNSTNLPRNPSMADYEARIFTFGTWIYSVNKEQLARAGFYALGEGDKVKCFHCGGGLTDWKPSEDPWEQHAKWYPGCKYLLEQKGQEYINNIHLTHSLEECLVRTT
Sequence of cIAP1-BIR3 Protein (Q13490 253-363): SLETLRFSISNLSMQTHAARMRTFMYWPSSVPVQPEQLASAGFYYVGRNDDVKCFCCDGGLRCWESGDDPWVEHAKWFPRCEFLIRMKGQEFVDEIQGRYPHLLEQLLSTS
Sequence of cIAP2-BIR3 Protein (Q13489 238-349): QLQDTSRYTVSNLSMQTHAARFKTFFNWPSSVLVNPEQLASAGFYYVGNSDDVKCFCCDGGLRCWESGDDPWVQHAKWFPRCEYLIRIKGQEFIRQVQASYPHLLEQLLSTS

Row | IC50 (cIAP1-BIR3 Protein) [nM] | IC50 (cIAP2-BIR3 Protein) [nM] | IC50 (XIAP-BIR3 Protein) [nM] | EC50 [1, 2] [nM] | EC50 ([1]; Homo sapiens, 6 h, Table 4, 20 ng/mL TNF-α, Bright-Glo luciferase, exact values with control Birinapant) [nM] | Structure (SMILES) | EC50 ([1]; Homo sapiens, Table 3, 20 ng/mL TNF-α, 6 h, Bright-Glo luciferase, values given as ranges) [nM]
1 | 10 to 100 | 10 to 100 | 10 to 100 | > 100 |  | CC[C@H](NC(=O)[C@H](C)NC)C(=O)N1C[C@@H](F)C[C@H]1Cc1c(-c2nc3cc(F)ccc3n2C[C@@H]2C[C@H](F)CN2C(=O)[C@H](CC)NC(=O)[C@H](C)NC)[nH]c2cc(F)ccc12 [Embodiment 13] | 
2 | < 10 | 10 to 100 | 10 to 100 | < 10 | 0.66 | CN[C@@H](C)C(=O)N[C@H](C(=O)N1C[C@@H](F)C[C@H]1Cc1c(-c2nc3cc(F)ccc3n2C[C@@H]2C[C@H](F)CN2C(=O)[C@@H](NC(=O)[C@H](C)NC)C(C)C)[nH]c2cc(F)ccc12)C(C)C [Embodiment 16] | 
3 | < 10 | 10 to 100 | 10 to 100 | < 10 |  | CC[C@H](NC(=O)[C@H](C)NC)C(=O)N1C[C@@H](F)C[C@H]1Cc1c(-c2nc3cc(F)ccc3n2C[C@@H]2C[C@H](F)CN2C(=O)[C@@H](NC(=O)[C@H](C)NC)C2CCCCC2)[nH]c2cc(F)ccc12 [Embodiment 20] | 
4 | < 10 | 10 to 100 | < 10 | < 10 |  | CN[C@@H](C)C(=O)N[C@H](C(=O)N1C[C@@H](F)C[C@H]1Cn1c(-c2[nH]c3cc(F)ccc3c2C[C@@H]2C[C@H](F)CN2C(=O)[C@@H](NC(=O)[C@H](C)NC)C2CC2)nc2cc(F)ccc21)C(C)C [Embodiment 28] | 
5 | < 10 | 10 to 100 | 10 to 100 | < 10 |  | CC[C@H](NC(=O)[C@H](C)NC)C(=O)N1C[C@@H](F)C[C@H]1Cc1c(-c2nc3cc(F)ccc3n2C[C@@H]2CCCN2C(=O)[C@@H](NC(=O)[C@H](C)NC)C(C)(C)C)[nH]c2cc(F)ccc12 [Embodiment 40] | 
6 | < 10 | 10 to 100 | < 10 | 10 to 100 |  | CC[C@H](NC(=O)[C@H](C)NC)C(=O)N1CCC[C@H]1Cn1c(-c2[nH]c3cc(F)ccc3c2C[C@@H]2C[C@H](F)CN2C(=O)[C@@H](NC(=O)[C@H](C)NC)C(C)(C)C)nc2cc(F)ccc21 [Embodiment 42] | 
7 | < 10 | 10 to 100 | 10 to 100 | < 10 |  | CCC[C@H](NC(=O)[C@H](C)NC)C(=O)N1C[C@@H](F)C[C@H]1Cn1c(-c2[nH]c3cc(F)ccc3c2C[C@@H]2C[C@H](F)CN2C(=O)[C@@H](NC(=O)[C@H](C)NC)C2CCCCC2)nc2cc(F)ccc21 [Embodiment 36] | 
8 | < 10 | 10 to 100 | 10 to 100 | 10 to 100 |  | CC[C@H](NC(=O)[C@H](C)NC)C(=O)N1C[C@@H](F)C[C@H]1Cn1c(-c2[nH]c3cc(F)ccc3c2C[C@@H]2C[C@H](F)CN2C(=O)[C@@H](NC(=O)[C@H](C)NC)C2CC2)nc2cc(F)ccc21 [Embodiment 25] | 

Second part, the compound before the results:

Row | Structure (SMILES) | IC50 (cIAP1-BIR3 Protein) [nM] | IC50 (cIAP2-BIR3 Protein) [nM] | IC50 (XIAP-BIR3 Protein) [nM] | EC50 [1, 2] [nM] | EC50 ([1]; Homo sapiens, 6 h, Table 4, 20 ng/mL TNF-α, Bright-Glo luciferase, exact values with control Birinapant) [nM] | EC50 ([1]; Homo sapiens, Table 3, 20 ng/mL TNF-α, 6 h, Bright-Glo luciferase, values given as ranges) [nM]
9 | CN[C@@H](C)C(=O)N[C@H](C(=O)N1CC(F)(F)C[C@H]1Cc1c(-c2nc3cc(F)ccc3n2C[C@@H]2CC(F)(F)CN2C(=O)[C@@H](NC(=O)[C@H](C)NC)C2CC2)[nH]c2cc(F)ccc12)C1CC1 [Embodiment 44] | < 10 | 10 to 100 | < 10 | > 100 |  | 
10 | CC[C@H](NC(=O)[C@H](C)NC)C(=O)N1C[C@@H](F)C[C@H]1Cc1c(-c2nc3cc(F)ccc3n2C[C@@H]2C[C@H](F)CN2C(=O)[C@@H](NC(=O)[C@H](C)NC)C2CC2)[nH]c2cc(F)ccc12 [Embodiment 31] | < 10 | 10 to 100 | 10 to 100 | 10 to 100 |  | 
11 | CC[C@H](NC(=O)[C@H](C)NC)C(=O)N1C[C@@H](F)C[C@H]1Cn1c(-c2[nH]c3cc(F)ccc3c2C[C@@H]2C[C@H](F)CN2C(=O)[C@@H](NC(=O)[C@H](C)NC)C(C)C)nc2cc(F)ccc21 [Embodiment 24] | < 10 | 10 to 100 | 10 to 100 | 10 to 100 |  | 
12 | CC[C@H](NC(=O)[C@H](C)NC)C(=O)N1CCC[C@H]1Cc1c(-c2nc3cc(F)ccc3n2C[C@@H]2CCCN2C(=O)[C@@H](NC(=O)[C@H](C)NC)C(C)C)[nH]c2cc(F)ccc12 [Embodiment 2] | < 10 | 10 to 100 | 10 to 100 | 10 to 100 |  | 
13 | CN[C@@H](C)C(=O)N[C@H](C(=O)N1C[C@@H](F)C[C@H]1Cc1c(-c2nc3cc(F)ccc3n2C[C@@H]2C[C@H](F)CN2C(=O)[C@@H](NC(=O)[C@H](C)NC)C(C)(C)C)[nH]c2cc(F)ccc12)C1CC1 [Embodiment 29] | < 10 | 10 to 100 | 10 to 100 | < 10 |  | 
14 | CC[C@H](NC(=O)[C@H](C)NC)C(=O)N1C[C@@H](F)C[C@H]1Cn1c(-c2[nH]c3cc(F)ccc3c2C[C@@H]2C[C@H](F)CN2C(=O)[C@@H](NC(=O)[C@H](C)NC)C(C)(C)C)nc2cc(F)ccc21 [Embodiment 26] | < 10 | < 10 | < 10 |  |  | < 10
15 | CN[C@@H](C)C(=O)N[C@H](C(=O)N1C[C@@H](F)C[C@H]1Cc1c(-c2nc3cc(F)ccc3n2C[C@@H]2C[C@H](F)CN2C(=O)[C@@H](NC(=O)[C@H](C)NC)C2CC2)[nH]c2cc(F)ccc12)C1CCCCC1 [Embodiment 23] | < 10 | < 10 | 10 to 100 | < 10 |  | 
